Experimental data taken from ChEMBL document CHEMBL6103633 (J Med Chem, 2025).
Calls of active or inactive are those of the source. The calls are words filed in the database; no cut-off is given here.

How the values were obtained:
[1] = target: T1, Ornithine decarboxylase (Homo sapiens) (UniProt P11926); assay: Inhibition of ODC in human Kelly cells at 500 uM incubated for 2 hrs by liquid scintillation analysis; type: cell-based
T1 sequence (whole entry): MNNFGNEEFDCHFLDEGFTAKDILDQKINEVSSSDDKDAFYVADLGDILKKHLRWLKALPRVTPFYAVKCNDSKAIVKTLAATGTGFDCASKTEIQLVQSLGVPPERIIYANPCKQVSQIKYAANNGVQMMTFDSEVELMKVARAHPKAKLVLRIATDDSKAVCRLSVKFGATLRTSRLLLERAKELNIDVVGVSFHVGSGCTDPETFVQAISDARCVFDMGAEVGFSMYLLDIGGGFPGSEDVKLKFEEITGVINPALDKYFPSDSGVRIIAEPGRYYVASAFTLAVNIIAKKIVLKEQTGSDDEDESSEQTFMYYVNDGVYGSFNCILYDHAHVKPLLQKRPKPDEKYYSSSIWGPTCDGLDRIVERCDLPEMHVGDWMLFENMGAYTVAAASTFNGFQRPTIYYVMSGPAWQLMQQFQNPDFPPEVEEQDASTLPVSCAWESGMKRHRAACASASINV

[2] = target: T1, Ornithine decarboxylase (Homo sapiens); assay: Inhibition of ODC in human Kelly cells assessed as reduction in spermidine level at 500 microM incubated for 20 min by HPLC analysis; type: cell-based
[3] = target: T1, Ornithine decarboxylase (Homo sapiens); assay: Inhibition of human ODC in human Kelly cells assessed as reduction in spermine level at 500 microM incubated for 20 min by HPLC analysis; type: cell-based
[4] = target: T1, Ornithine decarboxylase (Homo sapiens); assay: Inhibition of human ODC in human Kelly cells assessed as effect on putrescine level at 500 microM incubated for 20 min by HPLC analysis; type: cell-based
[5] = Dissociation constant, pKa of the compound; type: physicochemical
[6] = target: T1, Ornithine decarboxylase (Homo sapiens); assay: Inhibition of full length C-terminal his-6 tagged human ODC extracted from Escherichia coli BL21 (DE3) cells at 50 uM incubated for 30 mins by liquid scintillation analysis relative to control
[7] = Cytotoxicity against Normal primary human neonatal fibroblast cell at 500 uM incubated for 72 hrs by SRB assay relative to control; type: toxicity, cell-based

NCCCON
inhibition [1]: Active | inhibition [2]: Active | inhibition [3]: Active | inhibition [4]: inactive

Cc1ncc(COP(=O)(O)O)c(/C=N/OCCCN)c1O
pKa [5]: ~5.9

NCCC[C@](N)(C(=O)O)C(F)F
inhibition [1]: Active | inhibition [2]: Active | inhibition [3]: Active | inhibition [4]: inactive

NOCC1CNC1
inhibition [6]: 0%

NOC[C@H]1CCCNC1
Activity [7]: 0%

NOCC1(F)CCNC1 (racemic)
inhibition [1]: Active | inhibition [2]: Active | inhibition [3]: Active | inhibition [4]: inactive

NOC[C@@H]1CCCNC1
Activity [7]: 0%
